What all share (assay type): cell-based
In assay [1] the target is T1, CDK4 protein (Homo sapiens, UniProt P11802).
T1 construct: host or cells: OVCAR3
The experiment in a line: CDK4 protein degradation in OVCAR3 cells (Western blot). Conditions: 24 h. The method, then: (§1) OVCAR3 (Cobioer, CBP60294) cell line of exponential growth phase was inoculated on a 6-well cell culture plate (Corning, 3516) according to 3E5/well scheme; and the plate was incubated overnight in a 5%-carbon dioxide incubator at 37° C. The next day, the test compound was dissolved in DMSO (Sigma, RNBF5902) to prepare a 10-mM concentration stock solution. The stock solution was diluted with complete medium, giving working solutions of different concentrations. Working solution was added into the corresponding wells of the orifice plate. The plate was placed in a 5% carbon dioxide incubator, set at 37° C., and incubated for 24 h. The plate was removed from the incubator, and the cells were washed twice with precooled PBS (Gibco, 14190250), followed by addition of 40 μL RIPA lysis buffer (containing protease inhibitor (Invitrogen™, AM2696)) to each well. Adherent cells were scraped off with a cell scraper, and the cell lysate was transferred to a 1.5 mL centrifuge tube, and the tube was placed on ice for 30 minutes. After completion of cell lysis, the tube was centrifugated for 10 min at 4° C., 14000 rpm. The supernatant was transferred into a new 1.5-mL centrifuge tube, and the new tube was placed on ice, followed by measurement of the protein concentration with BCA protein detection kit (Thermo Fisher, 23225). A mixture of cell lysate (40 μL) and loading buffer (10 μL, 5×SDS (Beyotime, P0015L)) was placed into a water bath at 95° C. for 10 min to denature the protein. The denatured protein sample, 30 μL/well, was added into a corresponding well of 4-20% Bis-Tris gel (Kingsley, M00657). The initial voltage was adjusted to 80-V and run for 30 min, followed by voltage increased to 120 V, and run for another 40 min, until the strip had run to the appropriate position. After electrophoresis, iBlot2 (Life Technologies, IB21001) was used to transfer the film under the condition of 20 V and 7 min. At the end of film transfer, 5% skimmed milk powder was sealed at room temperature for 2 h, and then TBST (Thermo Scientific, 28360) buffer solution was used to rinse for three times, 10 minutes each time. Skimmed milk powder (5%) was diluted with the first antibody in the appropriate proportion, and the working solution of the first antibody was prepared and incubated overnight at 4° C. After the incubation of the first antibody, the membrane was washed three times at room temperature with TBST buffer solution, 10 minutes each time; and the second antibody was incubated with 5% skimmed milk powder at room temperature for 1 h. After washing the film for three times with TBST, ECL color developing solution (Thermofisher 34095) was added, and an image was taken on a Biorad Chemi Doc gel imager. The band gray value was analyzed (Image Lab).
(§2) Symbols of “−”, “+”, “++”, and “+++” indicate that the degradation level of CDK protein induced by test compound was 10% or less, 11 to 30%, 31 to 60%, and greater than 60%, respectively.
(§3) Half-maximum degradation concentrations (DC50s) of test compounds were calculated using GraphPad Prism and their values are shown in Table 4. Symbols of “++++”, “+++”, “++”, “+” and “−” represent DC50s equal or less than 10 nM, 11-50 nM, 51-100 nM, 101-200 nM, and >200 nM, respectively.

Assay [2] addresses T2, CDK1 protein (Homo sapiens, UniProt P06493).
T2 construct: host or cells: OVCAR3
In words: CDK1 protein degradation in OVCAR3 cells (Western blot). The note with it: 24 h. The procedure: as §1, §2, §3
On the technique in general: In western blotting, separated proteins are transferred to a membrane and probed.

The target of assay [3] is T3, CDK6 protein (Homo sapiens, UniProt Q00534).
T3 construct: host or cells: OVCAR3
The experiment in a line: CDK6 protein degradation in OVCAR3 cells (Western blot). Conditions: 24 h. The procedure:
as §1, §2, §3

In assay [4] the test system is OVCAR3 cells. The experiment in a line: Cell proliferation study (Cell Titer Glo, 72 h). Conditions: Homo sapiens, OVCAR-3, luminescence, read-out: IC50, inhibitory effect on cellular proliferation.
The target in assay [5] is T4, CDK2 protein (Homo sapiens, UniProt P24941).
T4 construct: host or cells: OVCAR3
In words: CDK2 protein degradation in OVCAR3 cells (Western blot). Conditions: 24 h. The procedure: as §1, §2, §3

Molecules are shown by their SMILES. Some results are limits rather than exact numbers.

T3 sequence (Q00534 whole entry): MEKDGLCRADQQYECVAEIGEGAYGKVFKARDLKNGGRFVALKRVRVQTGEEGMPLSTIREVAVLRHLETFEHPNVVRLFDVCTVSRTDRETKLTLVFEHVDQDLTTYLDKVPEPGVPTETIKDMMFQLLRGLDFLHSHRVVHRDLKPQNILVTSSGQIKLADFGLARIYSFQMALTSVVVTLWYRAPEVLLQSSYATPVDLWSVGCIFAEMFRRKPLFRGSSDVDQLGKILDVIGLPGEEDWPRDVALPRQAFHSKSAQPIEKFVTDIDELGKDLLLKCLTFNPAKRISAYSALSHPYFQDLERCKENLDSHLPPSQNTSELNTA
T1 sequence (P11802 whole entry): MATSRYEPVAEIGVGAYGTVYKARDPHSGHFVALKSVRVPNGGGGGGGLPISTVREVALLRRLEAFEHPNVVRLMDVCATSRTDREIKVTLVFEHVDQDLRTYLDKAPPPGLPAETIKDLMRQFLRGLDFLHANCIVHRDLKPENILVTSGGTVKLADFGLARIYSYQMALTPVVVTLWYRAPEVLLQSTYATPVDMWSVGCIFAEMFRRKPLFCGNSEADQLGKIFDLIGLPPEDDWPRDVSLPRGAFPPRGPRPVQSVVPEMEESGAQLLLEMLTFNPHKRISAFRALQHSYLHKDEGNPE
T2 sequence (P06493 whole entry): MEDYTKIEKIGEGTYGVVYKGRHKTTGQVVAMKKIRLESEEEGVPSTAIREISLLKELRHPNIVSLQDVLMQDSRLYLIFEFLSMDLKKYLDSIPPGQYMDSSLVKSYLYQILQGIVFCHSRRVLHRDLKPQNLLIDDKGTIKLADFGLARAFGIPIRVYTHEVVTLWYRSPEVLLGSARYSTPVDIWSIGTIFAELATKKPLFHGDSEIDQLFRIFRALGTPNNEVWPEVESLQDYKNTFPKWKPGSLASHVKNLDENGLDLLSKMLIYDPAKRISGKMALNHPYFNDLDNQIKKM

For `Cc1nc2c(F)cc(-c3nc(Nc4ccc(S(=O)(=O)C5CCN(C6CCN(C7CN(c8cc9c(cc8F)C(=O)N(C8CCC(=O)NC8=O)C9=O)C7)CC6)CC5)cc4)ncc3F)cc2n1C(C)C` (stereo not drawn) [Compound 64], the DC50 in assay [1] (read-out: DC50 CDK4 (half-maximum degradation concentration)), in assay [2] (read-out: DC50 CDK1 (half-maximum degradation concentration)), in assay [3] (read-out: DC50 CDK6 (half-maximum degradation concentration)) and in assay [5] (read-out: DC50 CDK2 (half-maximum degradation concentration)) was greater than 200 nM throughout. Moreover, in assay [1] (OVCAR-3, 50 nM test compound, read-out: level of CDK4 protein degradation), the percent CDK4 protein degradation at 0.05 µM is no more than 10%. Moreover, the percent CDK1 protein degradation at 0.05 µM in assay [2] (OVCAR-3, 50 nM test compound, read-out: level of CDK1 protein degradation) is greater than 60%. In addition, the percent CDK6 protein degradation at 0.05 µM in assay [3] (OVCAR-3, 50 nM test compound, read-out: level of CDK6 protein degradation) is greater than 60%. In addition, the IC50 in assay [4] was less than 100 nM. The “level of CDK2 protein degradation” value in assay [5] (50 nM test compound) is given as “+++ (greater than 60%)”.

The values above are taken from patent US20240050577A1, “CDK INHIBITORS AND PHARMACEUTICAL USES THEREOF” (RISEN (SUZHOU) PHARMA TECH CO., LTD., priority 2022, published 2024).
